Values of other authors as cited in patent publication US20060084635A1, “Aspirin and vitamin and/or trace element compositions for the amelioration and treatment of vascular disease” (priority 1993, published 2006).
“Also recorded” adds a separate entry of the source. Like-named read-outs stand apart in the source and are kept apart here.

Assays:
[1] = system: vascular tissue; design: key: + Beneficial; 0 No Effect; − Detrimental
[2] = system: prostaglandins in the vascular wall and platelets
[3] = system: platelets
[4] = system: serum cholesterol and triglycerides; conditions: for blood serum levels of cholesterol and triglycerides: in vivo
[5] = in sufficient amounts
[6] = system: vascular lesions in branches of the aorta and cerebral arteries; conditions: rats; diet containing seven times the level of zinc required for normal growth
[7] = system: vascular wall wound healing; conditions: rat, in vivo
[8] = system: immune-triggered endothelial damage
[9] = system: atherosclerotic lesions; conditions: animals fed an atherogenic diet
[10] = system: retirement community residents; conditions: for All Deaths RR / Ischemic Heart Disease RR / Myocardial Infarction RR / Other Heart Disease RR / Stroke RR / Total Cardiovascular Deaths RR: relative risk vs Aspirin− Vitamin−

Compound: CC(=O)Oc1ccccc1C(=O)O [Aspirin, aspirin]
- Anti-Aggregant ([1]; Table 1): +
- Decreased Formation of Clots ([1]; Table 1): +
- Decreased Immune-Induced Lesions ([1]; Table 1): 0
- Decreased Peroxidation ([1]; Table 1): 0
- Decreases Serum Cholesterol ([1]; Table 1): 0
- Inhibition of Cholesterol Migration ([1]; Table 1): +
- Platelet Activity ([1]; Table 1): −
- Prostaglandin Synthesis ([1]; Table 1): −
- Speeding of Wound Healing ([1]; Table 1): −
- platelet prostaglandin function [2]: irreversibly block platelet prostaglandin function
- prostaglandin activity in the vascular wall [2]: reversibly decreases prostaglandin activity in the vascular wall
- tendency of blood clot formation ([3]; through platelet activity): reduces the tendency of blood clot formation

Compound: [Cr] [Chromium]
- Anti-Aggregant ([1]; Table 2): 0
- Decreased Formation of Clots ([1]; Table 2): 0
- Decreased Immune-Induced Lesions ([1]; Table 2): 0
- Decreased Peroxidation ([1]; Table 2): 0
- Decreases Serum Cholesterol ([1]; Table 2): +
- Inhibition of Cholesterol Migration ([1]; Table 2): 0
- Platelet Activity ([1]; Table 2): 0
- Prostaglandin Synthesis ([1]; Table 2): 0
- Speeding of Wound Healing ([1]; Table 2): 0

Compound: [Cu] [Copper]
- Anti-Aggregant ([1]; Table 2): 0
- Decreased Formation of Clots ([1]; Table 2): 0
- Decreased Immune-Induced Lesions ([1]; Table 2): +
- Decreased Peroxidation ([1]; Table 2): 0
- Decreases Serum Cholesterol ([1]; Table 2): +
- Inhibition of Cholesterol Migration ([1]; Table 2): 0
- Platelet Activity ([1]; Table 2): 0
- Prostaglandin Synthesis ([1]; Table 2): 0
- Speeding of Wound Healing ([1]; Table 2): +

Compound: [Mg+2] [Magnesium]
- Anti-Aggregant ([1]; Table 2): 0
- Decreased Formation of Clots ([1]; Table 2): 0
- Decreased Immune-Induced Lesions ([1]; Table 2): 0
- Decreased Peroxidation ([1]; Table 2): 0
- Decreases Serum Cholesterol ([1]; Table 2): +
- Inhibition of Cholesterol Migration ([1]; Table 2): 0
- Platelet Activity ([1]; Table 2): +
- Prostaglandin Synthesis ([1]; Table 2): 0
- Speeding of Wound Healing ([1]; Table 2): +

Compound: O=C(O)c1cccnc1 [Niacin, Niacin (nictotinic acid)]
- Anti-Aggregant ([1]; Table 1): 0
- Decreased Formation of Clots ([1]; Table 1): 0
- Decreased Immune-Induced Lesions ([1]; Table 1): 0
- Decreased Peroxidation ([1]; Table 1): 0
- Decreases Serum Cholesterol ([1]; Table 1): +
- Inhibition of Cholesterol Migration ([1]; Table 1): 0
- Platelet Activity ([1]; Table 1): 0
- Prostaglandin Synthesis ([1]; Table 1): +
- Speeding of Wound Healing ([1]; Table 1): 0
- blood serum levels of cholesterol and triglycerides [4]: reduce the blood serum levels of cholesterol and triglycerides
- blood serum levels of cholesterol and triglycerides ([4]; listed as niacin): reduced
- undesirable effects of supplements [5]: skin flush and dizziness

Compound: [Se] [Selenium]
- Anti-Aggregant ([1]; Table 2): +
- Decreased Formation of Clots ([1]; Table 2): 0
- Decreased Immune-Induced Lesions ([1]; Table 2): +
- Decreased Peroxidation ([1]; Table 2): +
- Decreases Serum Cholesterol ([1]; Table 2): +
- Inhibition of Cholesterol Migration ([1]; Table 2): 0
- Platelet Activity ([1]; Table 2): +
- Prostaglandin Synthesis ([1]; Table 2): +
- Speeding of Wound Healing ([1]; Table 2): 0

Compound: Cc1ncc(CO)c(CO)c1O.Cl [Vitamin B6]
- Anti-Aggregant ([1]; Table 1): 0
- Decreased Formation of Clots ([1]; Table 1): 0
- Decreased Immune-Induced Lesions ([1]; Table 1): 0
- Decreased Peroxidation ([1]; Table 1): 0
- Decreases Serum Cholesterol ([1]; Table 1): +
- Inhibition of Cholesterol Migration ([1]; Table 1): 0
- Platelet Activity ([1]; Table 1): 0
- Prostaglandin Synthesis ([1]; Table 1): 0
- Speeding of Wound Healing ([1]; Table 1): 0

Compound: O=C1O[C@H]([C@@H](O)CO)C(O)=C1O [Vitamin C]
- Anti-Aggregant ([1]; Table 1): 0
- Decreased Formation of Clots ([1]; Table 1): 0
- Decreased Immune-Induced Lesions ([1]; Table 1): 0
- Decreased Peroxidation ([1]; Table 1): 0
- Decreases Serum Cholesterol ([1]; Table 1): +
- Inhibition of Cholesterol Migration ([1]; Table 1): 0
- Platelet Activity ([1]; Table 1): 0
- Prostaglandin Synthesis ([1]; Table 1): +
- Speeding of Wound Healing ([1]; Table 1): 0
- prostaglandin activity in the vascular wall [2]: increases the level of activity of prostaglandins in the vascular wall
- prostaglandin activity in the vascular wall ([2]; listed as vitamin C): increased

Compound: [Zn] [Zinc]
- Anti-Aggregant ([1]; Table 2): 0
- Decreased Formation of Clots ([1]; Table 2): 0
- Decreased Immune-Induced Lesions ([1]; Table 2): 0
- Decreased Peroxidation ([1]; Table 2): 0
- Decreases Serum Cholesterol ([1]; Table 2): +
- Inhibition of Cholesterol Migration ([1]; Table 2): 0
- Platelet Activity ([1]; Table 2): 0
- Prostaglandin Synthesis ([1]; Table 2): 0
- Speeding of Wound Healing ([1]; Table 2): 0
- incidence and severity of vascular lesions / atherosclerosis [6]: reduced incidence of atherosclerosis in rats; also recorded: greatly reduced

Compound: Vitamin A
- Anti-Aggregant ([1]; Table 1): +
- Decreased Formation of Clots ([1]; Table 1): 0
- Decreased Immune-Induced Lesions ([1]; Table 1): 0
- Decreased Peroxidation ([1]; Table 1): 0
- Decreases Serum Cholesterol ([1]; Table 1): −
- Inhibition of Cholesterol Migration ([1]; Table 1): 0
- Platelet Activity ([1]; Table 1): 0
- Prostaglandin Synthesis ([1]; Table 1): 0
- Speeding of Wound Healing ([1]; Table 1): +
- serum cholesterol levels ([4]; at higher doses): net increase in serum cholesterol levels
- vascular wall wound healing / arterial healing [7]: improve arterial healing; also recorded: speeds vascular wall wound healing
- immune-triggered endothelial damage / immune-induced lesions [8]: preventative effect on immune-induced lesions
- anti-aggregant activity [3]: mild anti-aggregant activity

Compound: Vitamin E
- Anti-Aggregant ([1]; Table 1): +
- Decreased Formation of Clots ([1]; Table 1): 0
- Decreased Immune-Induced Lesions ([1]; Table 1): +
- Decreased Peroxidation ([1]; Table 1): +
- Decreases Serum Cholesterol ([1]; Table 1): +
- Inhibition of Cholesterol Migration ([1]; Table 1): 0
- Platelet Activity ([1]; Table 1): 0
- Prostaglandin Synthesis ([1]; Table 1): +
- Speeding of Wound Healing ([1]; Table 1): 0
- serum and liver cholesterol levels ([4]; supplementation in vitamin E deficient animals): decrease serum and liver cholesterol levels in a dose- and time-dependent manner
- immune-triggered endothelial damage / immune-induced lesions [8]: preventative effect on immune-induced lesions; also recorded: protective effect
- severity of lesions [9]: reduce the severity of lesions
- anti-aggregant activity [3]: mild anti-aggregant effect

Compound: aspirin [Aspirin+ Vitamin−]
- All Deaths No. ([10]; Men): 45
- Ischemic Heart Disease No. ([10]; Men): 8
- Myocardial Infarction No. ([10]; Men): 7
- Other Heart Disease No. ([10]; Men): 6
- Stroke No. ([10]; Men): 2
- Total Cardiovascular Deaths No. ([10]; Men): 24
- All Deaths RR ([10]; Men): 1.00
- Ischemic Heart Disease RR ([10]; Men): 1.40
- Myocardial Infarction RR ([10]; Men): 0.88
- Other Heart Disease RR ([10]; Men): 1.52
- Stroke RR ([10]; Men): 0.50
- Total Cardiovascular Deaths RR ([10]; Men): 1.09
- All Deaths No. ([10]; Women): 47
- Ischemic Heart Disease No. ([10]; Women): 9
- Myocardial Infarction No. ([10]; Women): 4
- Other Heart Disease No. ([10]; Women): 6
- Stroke No. ([10]; Women): 4
- Total Cardiovascular Deaths No. ([10]; Women): 26
- All Deaths RR ([10]; Women): 0.82
- Ischemic Heart Disease RR ([10]; Women): 1.06
- Myocardial Infarction RR ([10]; Women): 0.49
- Other Heart Disease RR ([10]; Women): 0.81
- Stroke RR ([10]; Women): 0.68
- Total Cardiovascular Deaths RR ([10]; Women): 0.91

Compound: aspirin [Aspirin++ Vitamin−]
- All Deaths No. ([10]; Men): 65
- Ischemic Heart Disease No. ([10]; Men): 10
- Myocardial Infarction No. ([10]; Men): 7
- Other Heart Disease No. ([10]; Men): 7
- Stroke No. ([10]; Men): 7
- Total Cardiovascular Deaths No. ([10]; Men): 27
- All Deaths RR ([10]; Men): 1.35
- Ischemic Heart Disease RR ([10]; Men): 1.37
- Myocardial Infarction RR ([10]; Men): 0.91
- Other Heart Disease RR ([10]; Men): 1.57
- Stroke RR ([10]; Men): 1.53
- Total Cardiovascular Deaths RR ([10]; Men): 1.09
- All Deaths No. ([10]; Women): 77
- Ischemic Heart Disease No. ([10]; Women): 14
- Myocardial Infarction No. ([10]; Women): 10
- Other Heart Disease No. ([10]; Women): 12
- Stroke No. ([10]; Women): 9
- Total Cardiovascular Deaths No. ([10]; Women): 45
- All Deaths RR ([10]; Women): 1.36
- Ischemic Heart Disease RR ([10]; Women): 1.50
- Myocardial Infarction RR ([10]; Women): 1.25
- Other Heart Disease RR ([10]; Women): 1.41
- Stroke RR ([10]; Women): 1.58
- Total Cardiovascular Deaths RR ([10]; Women): 1.48
